# System: 439559-082-T-J2-PDC spheroids viability
# Test: Anticancer human tumor 439559-082-T-J2-PDC patient-derived colon adenocarcinoma cell line growth inhibition [GQUAD]
# Details: for IC50: curve of first compound; for viability, T/C: stronger effect = lower value
# How it was run: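 Tumor cells were grown as complex spheroids with HUVEC endothelial cells and mesenchymal stem cells as stroma. G-quadruplex stabilizers were combined with targeted agents over half-log dilutions from near the clinical Cmax, or from 10 microM.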
# [1] = second compound 0.0316 µM, first compound 0.0316 µM
# [2] = second compound 0.0316 µM, first compound 0.1 µM
# [3] = second compound 0.0316 µM, first compound 0.316 µM
# [4] = second compound 0.0316 µM, first compound 1 µM
# [5] = second compound 0.0316 µM, first compound 3.16 µM
# [6] = second compound 0.0316 µM, first compound 10 µM
# [7] = second compound 0.1 µM, first compound 0.0316 µM
# [8] = second compound 0.1 µM, first compound 0.1 µM
# [9] = second compound 0.1 µM, first compound 0.316 µM
# [10] = second compound 0.1 µM, first compound 1 µM
# [11] = second compound 0.1 µM, first compound 3.16 µM
# [12] = second compound 0.1 µM, first compound 10 µM
# [13] = second compound 0.316 µM, first compound 0.0316 µM
# [14] = second compound 0.316 µM, first compound 0.1 µM
# [15] = second compound 0.316 µM, first compound 0.316 µM
# [16] = second compound 0.316 µM, first compound 1 µM
# [17] = second compound 0.316 µM, first compound 3.16 µM
# [18] = second compound 0.316 µM, first compound 10 µM
# [19] = second compound 1 µM, first compound 0.0316 µM
# [20] = second compound 1 µM, first compound 0.1 µM
# [21] = second compound 1 µM, first compound 0.316 µM
# [22] = second compound 1 µM, first compound 1 µM
# [23] = second compound 1 µM, first compound 3.16 µM
# [24] = second compound 1 µM, first compound 10 µM
# [25] = second compound 3.16 µM, first compound 0.0316 µM
# [26] = second compound 3.16 µM, first compound 0.1 µM
# [27] = second compound 3.16 µM, first compound 0.316 µM
# [28] = second compound 3.16 µM, first compound 1 µM
# [29] = second compound 3.16 µM, first compound 3.16 µM
# [30] = second compound 3.16 µM, first compound 10 µM
# [31] = second compound 10 µM, first compound 0.0316 µM
# [32] = second compound 10 µM, first compound 0.1 µM
# [33] = second compound 10 µM, first compound 0.316 µM
# [34] = second compound 10 µM, first compound 1 µM
# [35] = second compound 10 µM, first compound 3.16 µM
# [36] = second compound 10 µM, first compound 10 µM
# 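Note: spheroids exposed to the agents for 7 days before readout.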
# 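Throughout, for viability, T/C: percent of luminescence signal in DMSO vehicle wells taken as 100% viability.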
structure (smiles),measurement,setting,value
CC1COCCN1c1cc(C2(S(C)(=N)=O)CC2)nc(-c2ccnc3[nH]ccc23)n1 (stereo unspecified) + Cc1cnc(CNC(=O)c2c(=O)c3ccc(N4CCCN(C)CC4)nc3n3c2sc2ccccc23)cn1,IC50,second compound 0.0316 µM,> 10 µM
same,IC50,second compound 0.1 µM,> 10 µM
same,IC50,second compound 0.316 µM,> 10 µM
same,IC50,second compound 1 µM,> 10 µM
same,IC50,second compound 3.16 µM,> 10 µM
same,IC50,second compound 10 µM,> 10 µM
same,"viability, T/C",[1],99.5%
same,"viability, T/C",[2],86.3%
same,"viability, T/C",[3],93.8%
same,"viability, T/C",[4],89.6%
same,"viability, T/C",[5],90.9%
same,"viability, T/C",[6],69.9%
same,"viability, T/C",[7],100%
same,"viability, T/C",[8],94.4%
same,"viability, T/C",[9],86.4%
same,"viability, T/C",[10],85.5%
same,"viability, T/C",[11],86.5%
same,"viability, T/C",[12],61.8%
same,"viability, T/C",[13],80.3%
same,"viability, T/C",[14],78.3%
same,"viability, T/C",[15],80.8%
same,"viability, T/C",[16],81.5%
same,"viability, T/C",[17],79.1%
same,"viability, T/C",[18],60.9%
same,"viability, T/C",[19],76.1%
same,"viability, T/C",[20],65.2%
same,"viability, T/C",[21],78.2%
same,"viability, T/C",[22],75.5%
same,"viability, T/C",[23],75.8%
same,"viability, T/C",[24],65.6%
same,"viability, T/C",[25],62%
same,"viability, T/C",[26],74.5%
same,"viability, T/C",[27],66.4%
same,"viability, T/C",[28],71.3%
same,"viability, T/C",[29],75.3%
same,"viability, T/C",[30],55.7%
same,"viability, T/C",[31],61.3%
same,"viability, T/C",[32],59.1%
same,"viability, T/C",[33],66.8%
same,"viability, T/C",[34],60.8%
same,"viability, T/C",[35],61.6%
same,"viability, T/C",[36],49.2%
O=C(c1cc(Cc2n[nH]c(=O)c3ccccc23)ccc1F)N1CCN(C(=O)C2CC2)CC1 + CN(C)c1ccc(Nc2c3ccc(NC(=O)CCN4CCCC4)cc3nc3cc(NC(=O)CCN4CCCC4)ccc23)cc1,IC50,second compound 0.0316 µM,> 10 µM
same,IC50,second compound 0.1 µM,> 10 µM
same,IC50,second compound 0.316 µM,> 10 µM
same,IC50,second compound 1 µM,> 10 µM
same,IC50,second compound 3.16 µM,> 10 µM
same,IC50,second compound 10 µM,> 10 µM
same,"viability, T/C",[1],101%
same,"viability, T/C",[2],92.1%
same,"viability, T/C",[3],102%
same,"viability, T/C",[4],99.6%
same,"viability, T/C",[5],94.4%
same,"viability, T/C",[6],95.5%
same,"viability, T/C",[7],101%
same,"viability, T/C",[8],96.6%
same,"viability, T/C",[9],99.2%
same,"viability, T/C",[10],97.9%
same,"viability, T/C",[11],101%
same,"viability, T/C",[12],87.3%
same,"viability, T/C",[13],96.2%
same,"viability, T/C",[14],104%
same,"viability, T/C",[15],98.5%
same,"viability, T/C",[16],96.2%
same,"viability, T/C",[17],100%
same,"viability, T/C",[18],90.8%
same,"viability, T/C",[19],98.3%
same,"viability, T/C",[20],95.1%
same,"viability, T/C",[21],95.3%
same,"viability, T/C",[22],97.6%
same,"viability, T/C",[23],98.5%
same,"viability, T/C",[24],107%
same,"viability, T/C",[25],103%
same,"viability, T/C",[26],99.7%
same,"viability, T/C",[27],94.9%
same,"viability, T/C",[28],101%
same,"viability, T/C",[29],99.1%
same,"viability, T/C",[30],99.7%
same,"viability, T/C",[31],105%
same,"viability, T/C",[32],96.8%
same,"viability, T/C",[33],104%
same,"viability, T/C",[34],93%
same,"viability, T/C",[35],108%
same,"viability, T/C",[36],94.9%
CCc1c2c(nc3ccc(O)cc13)-c1cc3c(c(=O)n1C2)COC(=O)[C@]3(O)CC + CN(C)c1ccc(Nc2c3ccc(NC(=O)CCN4CCCC4)cc3nc3cc(NC(=O)CCN4CCCC4)ccc23)cc1,IC50,second compound 0.0316 µM,0.163 µM
same,IC50,second compound 0.1 µM,0.181 µM
same,IC50,second compound 0.316 µM,0.207 µM
same,IC50,second compound 1 µM,0.179 µM
same,IC50,second compound 3.16 µM,0.196 µM
same,IC50,second compound 10 µM,0.195 µM
same,"viability, T/C","second compound 0.0316 µM, first compound 0.000999 µM",99.7%
same,"viability, T/C","second compound 0.0316 µM, first compound 0.00316 µM",88.5%
same,"viability, T/C","second compound 0.0316 µM, first compound 0.00999 µM",72.7%
same,"viability, T/C",[1],70.1%
same,"viability, T/C","second compound 0.0316 µM, first compound 0.0999 µM",52.5%
same,"viability, T/C",[3],43.8%
same,"viability, T/C","second compound 0.1 µM, first compound 0.000999 µM",110%
same,"viability, T/C","second compound 0.1 µM, first compound 0.00316 µM",91%
same,"viability, T/C","second compound 0.1 µM, first compound 0.00999 µM",82.1%
same,"viability, T/C",[7],72.6%
same,"viability, T/C","second compound 0.1 µM, first compound 0.0999 µM",56.6%
same,"viability, T/C",[9],42.9%
same,"viability, T/C","second compound 0.316 µM, first compound 0.000999 µM",104%
same,"viability, T/C","second compound 0.316 µM, first compound 0.00316 µM",93.6%
same,"viability, T/C","second compound 0.316 µM, first compound 0.00999 µM",77.1%
same,"viability, T/C",[13],70.5%
same,"viability, T/C","second compound 0.316 µM, first compound 0.0999 µM",67.7%
same,"viability, T/C",[15],40.3%
same,"viability, T/C","second compound 1 µM, first compound 0.000999 µM",93.3%
same,"viability, T/C","second compound 1 µM, first compound 0.00316 µM",85.7%
same,"viability, T/C","second compound 1 µM, first compound 0.00999 µM",85.8%
same,"viability, T/C",[19],69.3%
same,"viability, T/C","second compound 1 µM, first compound 0.0999 µM",56.8%
same,"viability, T/C",[21],43.9%
same,"viability, T/C","second compound 3.16 µM, first compound 0.000999 µM",100%
same,"viability, T/C","second compound 3.16 µM, first compound 0.00316 µM",90%
same,"viability, T/C","second compound 3.16 µM, first compound 0.00999 µM",76.6%
same,"viability, T/C",[25],64.2%
same,"viability, T/C","second compound 3.16 µM, first compound 0.0999 µM",61.5%
same,"viability, T/C",[27],43.2%
same,"viability, T/C","second compound 10 µM, first compound 0.000999 µM",106%
same,"viability, T/C","second compound 10 µM, first compound 0.00316 µM",79%
same,"viability, T/C","second compound 10 µM, first compound 0.00999 µM",80.8%
same,"viability, T/C",[31],75.4%
same,"viability, T/C","second compound 10 µM, first compound 0.0999 µM",59.6%
same,"viability, T/C",[33],41.7%
